Assay results as given in patent US20230332245A1, “Complement as Prognostic and Predictive Biomarker and Potential Therapeutic Target in Renal Cell Carcinoma” (Texas Tech University System, priority 2020, published 2023).

How the values were obtained:
Format in all cases: in vivo, mouse
[1] = test system: CD8^+ T cells in tumors (TIL); assay: Flow cytometry of CD8+ T cells (TIL) and IFN-γ expressing TIL in Renca tumors
Description: Mouse studies were approved by the Institutional Animal Care and Use Committee of the Texas Tech University Health Sciences Center. Eight to twelve weeks old BALB/c, C3ar1, and C5ar1 knockout mice from the Jackson Laboratory were injected s.c. with 1×10^6 Renca cells (ATCC® CRL2947™). When tumors reached ˜5 mm in diameter mice were assigned to treatment cohorts and treated with, C3aR1 inhibitor SB 290157 (Sigma-Aldrich, 10 mg/kg i.p. twice a day), C5aR1 inhibitor PMX53 [17] (1 mg/kg, i.p. every other day), or PD-1 antibody (RMP1-14, BE-0146, Bio X Cell, 250 μg per mouse i.p. every 4 days), or RaIgG2a isotype control (BE-0089, Bio X Cell, 250 μg i.p. every 4 days), as previously described. […]
Cells from tumors were pre-incubated with CD16/32 antibody (Fc block; 2.4G2; BD Pharmingen) and stained with fluorochrome-conjugated antibodies from Biolegend: BV605-CD45 (30-F11), AF700-CD3 (17A2), PerCP/Cy5.5-CD4 (GK1.5), and PE/Cy7-CD8α (53-6.7) as recommended by the manufacturer. To quantify IFN-γ expression, cells were stained with surface markers and permeabilized with Cytofix/Cytoperm (554714, BD Biosciences), and washed with 1× Perm/Wash buffer (554714, BD Biosciences) followed by incubation with PE-IFN-γ (XMG1.2, Biolegend). […] Data were acquired on BD Fortessa and analyzed with FlowJo software (Tree Star).

Renca cells = assay: Tumor growth in anti-PD-1-recalcitrant Renca model of RCC; conditions: BALB/c mice, s.c. Renca tumors; vs placebo (PBS) or isotype IgG; FIG. 6A, 6C
Description: (§1) Mouse studies were approved by the Institutional Animal Care and Use Committee of the Texas Tech University Health Sciences Center. Eight to twelve weeks old BALB/c, C3ar1, and C5ar1 knockout mice from the Jackson Laboratory were injected s.c. with 1×10^6 Renca cells (ATCC® CRL2947™). When tumors reached ˜5 mm in diameter mice were assigned to treatment cohorts and treated with, C3aR1 inhibitor SB 290157 (Sigma-Aldrich, 10 mg/kg i.p. twice a day), C5aR1 inhibitor PMX53 [17] (1 mg/kg, i.p. every other day), or PD-1 antibody (RMP1-14, BE-0146, Bio X Cell, 250 μg per mouse i.p. every 4 days), or RaIgG2a isotype control (BE-0089, Bio X Cell, 250 μg i.p. every 4 days), as previously described. CD8^+ T cells were depleted by intraperitoneal (i.p.) injection of 200 μg of CD8a-neutralizing antibody (2.43, Bio X cell, NH) per mouse, each day, for three consecutive days, prior to injecting tumor cells. […] BALB/c control mice were treated in the same manner with rat IgG2b (LTF-2, Bio X cell).
To test in vivo the role of complement proteins, the inventors used RCC-Renca (ATCC® CRL-2947™), a murine RCC model that while differing from human RCC, has been extensively evaluated in immunotherapy studies and is known to be recalcitrant to ICI [34], and therefore, potentially resembles ICI-resistant RCC. […]

[2] = test system: genes associated with T cell exhaustion; proangiogenic genes; assay: Real time quantitative PCR of gene expression in Renca tumors; conditions: relative to placebo; FIG. 6K
Description: as §1
RNA was extracted from frozen tissue using RNeasy plus mini kit (Qiagen) and cDNA was generated using High-Capacity RNA-to-cDNA™ kit (Applied Biosystems). […] Relative expression was calculated using the 2^−ΔΔCt method and RT2 profiler PCR Array Data Analysis (SAB Biosciences) and normalized to GAPDH.

Molecule | recruitment of CD8+ T cells to tumors (TIL) ([1]; FACS, FIG. 6D, 6F) | tumor growth (tumor volumes) (Renca cells) | expression of genes associated with T cell exhaustion (Pdcd1, Ctla4, Btla, Fas, Stat3) in tumors [2] | TIL function: production of IFN-γ upon ex-vivo restimulation ([1]; FACS after CD3/CD28 restimulation, FIG. 6G-6J)
PMX53 | influx CD8^+ T cells to tumors | reduced tumor growth | reduction in the expression | 
NC(N)=NCCC[C@H](NC(=O)COCC(c1ccccc1)c1ccccc1)C(=O)O [SB290157] |  | reduced tumor growth | Btla and Fas were upregulated | highest production of IFN-γ
